Experimental data published in ChEMBL document CHEMBL4390669, “C-6α- vs C-7α-Substituted Steroidal Aromatase Inhibitors: Which Is Better? Synthesis, Biochemical Evaluation, Docking Studies, and Structure-Activity Relationships” (J Med Chem, 2019).
Calls of active or inactive are those of the source. The rule behind the calls is not given here.

molecular target: T1, Aromatase (Homo sapiens, UniProt P11511); assay: Competitive reversible inhibition of human placental microsome aromatase using varying levels of [1beta3H]-androstenedione as substrate measured after 5 mins in presence of NADPH by Dixon-plot analysis; format: microsomes, Placenta; details: read-out: Ki(app)
T1 sequence (P11511 whole entry): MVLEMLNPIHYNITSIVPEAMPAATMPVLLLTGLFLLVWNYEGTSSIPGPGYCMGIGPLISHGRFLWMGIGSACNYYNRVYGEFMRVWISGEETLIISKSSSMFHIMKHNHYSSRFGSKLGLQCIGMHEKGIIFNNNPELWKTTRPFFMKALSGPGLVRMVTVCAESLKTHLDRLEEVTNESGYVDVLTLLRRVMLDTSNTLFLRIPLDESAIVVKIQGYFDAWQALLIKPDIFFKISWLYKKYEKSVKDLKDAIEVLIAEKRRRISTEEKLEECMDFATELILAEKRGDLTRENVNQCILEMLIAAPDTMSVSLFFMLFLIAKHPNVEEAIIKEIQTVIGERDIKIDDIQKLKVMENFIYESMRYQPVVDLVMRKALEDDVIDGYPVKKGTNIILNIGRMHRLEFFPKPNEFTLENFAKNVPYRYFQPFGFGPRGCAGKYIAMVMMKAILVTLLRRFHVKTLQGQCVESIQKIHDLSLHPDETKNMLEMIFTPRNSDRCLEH

Row | Structure (SMILES) | Ki [nM]
1 | C[C@H]1C[C@@H]2[C@H](CC[C@]3(C)C(=O)CC[C@@H]23)[C@@]2(C)CCC(=O)C=C12 | 25

molecular target: T1, Aromatase; assay: Competitive reversible inhibition of human placental microsome aromatase assessed as substrate Vmax per ug protein using varying levels of [1beta3H]-androstenedione as substrate measured after 5 mins in presence of NADPH by Dixon-plot analysis; design: species or system Placenta; details: microsomes

Row | Structure (SMILES) | Vmax [nmol/min]
2 | C[C@H]1C[C@@H]2[C@H](CC[C@]3(C)C(=O)CC[C@@H]23)[C@@]2(C)CCC(=O)C=C12 | 0.0191

molecular target: T1, Aromatase; assay: Ratio of Km to Ki for human placental microsome aromatase using varying levels of [1beta3H]-androstenedione as substrate measured after 5 mins in presence of NADPH by Dixon-plot analysis; design: species or system Placenta; details: microsomes

Row | Structure (SMILES) | Ratio
3 | C[C@H]1C[C@@H]2[C@H](CC[C@]3(C)C(=O)CC[C@@H]23)[C@@]2(C)CCC(=O)C=C12 | 2.53
4 | C=CC[C@H]1C[C@@H]2[C@H](CC[C@]3(C)C(=O)CC[C@@H]23)[C@@]2(C)C=CC(=O)C=C12 | 2.81

system: MCF7; assay: Induction of crystal formation in human MCF7 cells transfected with human placental microsome aromatase at 10 uM measured after 1 hr; format: functional, cell-based; details: not given

Row | Structure (SMILES) | Activity
5 | C[C@H]1C[C@@H]2[C@H](CC[C@]3(C)C(=O)CC[C@@H]23)[C@@]2(C)CCCC=C12 | Active
6 | C=CC[C@@H]1CC2=C(O)C(=O)CC[C@]2(C)[C@H]2CC[C@]3(C)C(=O)CC[C@H]3[C@H]12 | Active

molecular target: T1, Aromatase; assay: Inhibition of human placental microsome aromatase using [1beta3H]-androstenedione as substrate measured after 15 mins in presence of NADPH by liquid scintillation counting method; format: microsomes, Placenta; details: not given

Row | Structure (SMILES) | IC50 [nM]
7 | C[C@H]1C[C@@H]2[C@H](CC[C@]3(C)C(=O)CC[C@@H]23)[C@@]2(C)CCCC=C12 | 170
8 | C[C@H]1C[C@@H]2[C@H](CC[C@]3(C)C(=O)CC[C@@H]23)[C@@]2(C)CCC=C[C@H]12 | 560
9 | C[C@@H]1CC2=CC(=O)CC[C@]2(C)[C@H]2CC[C@]3(C)C(=O)CC[C@H]3[C@H]12 | 270
10 | C[C@H]1C[C@@H]2[C@H](CC[C@]3(C)C(=O)CC[C@@H]23)[C@@]2(C)CCC(=O)C=C12 | 60
11 | C[C@@H]1CC2=CCCC[C@]2(C)[C@H]2CC[C@]3(C)C(=O)CC[C@H]3[C@H]12 | 405
12 | C=CC[C@@H]1CC2=C(O)C(=O)CC[C@]2(C)[C@H]2CC[C@]3(C)C(=O)CC[C@H]3[C@H]12 | 110
13 | C=CC[C@H]1C[C@@H]2[C@H](CC[C@]3(C)C(=O)CC[C@@H]23)[C@@]2(C)CCC(=O)C(O)=C12 | 520
14 | C[C@H]1C[C@@H]2[C@H](CC[C@]3(C)C(=O)CC[C@@H]23)[C@@]2(C)CC[C@H]3O[C@H]3[C@H]12 | 175
15 | C=CC[C@H]1C[C@@H]2[C@H](CC[C@]3(C)C(=O)CC[C@@H]23)[C@@]2(C)CCCC=C12 | 210
16 | C[C@]12CCC(=O)C=C1[C@H](O)C[C@@H]1[C@@H]2CC[C@]2(C)C(=O)CC[C@@H]12 | 840
17 | C=CC[C@H]1C[C@@H]2[C@H](CC[C@]3(C)C(=O)CC[C@@H]23)[C@@]2(C)CCC(=O)C=C12 | 105
18 | C=CC[C@H]1C[C@@H]2[C@H](CC[C@]3(C)C(=O)CC[C@@H]23)[C@@]2(C)C=CC(=O)C=C12 | 55
19 | C[C@]12CCC(=O)C=C1[C@@H](O)C[C@@H]1[C@@H]2CC[C@]2(C)C(=O)CC[C@@H]12 | 880

same assay, conditions: human, microsomes, 0.25 h

Row | Structure (SMILES) | inhibition (INH)
20 | C[C@H]1C[C@@H]2[C@H](CC[C@]3(C)C(=O)CC[C@@H]23)[C@@]2(C)CCC(=O)C=C12 | Dose-dependent effect
21 | C=CC[C@@H]1CC2=C(O)C(=O)CC[C@]2(C)[C@H]2CC[C@]3(C)C(=O)CC[C@H]3[C@H]12 | Dose-dependent effect
22 | C=CC[C@H]1C[C@@H]2[C@H](CC[C@]3(C)C(=O)CC[C@@H]23)[C@@]2(C)CCC(=O)C=C12 | Dose-dependent effect
23 | C=CC[C@H]1C[C@@H]2[C@H](CC[C@]3(C)C(=O)CC[C@@H]23)[C@@]2(C)C=CC(=O)C=C12 | Dose-dependent effect

molecular target: T1, Aromatase; assay: Inhibition of human placental microsome aromatase at 2 uM using [1beta3H]-androstenedione as substrate measured after 15 mins in presence of NADPH by liquid scintillation counting method relative to control; format: microsomes, Placenta; details: 0.25 h

Row | Structure (SMILES) | inhibition at 2 µM [%]
24 | C[C@H]1C[C@@H]2[C@H](CC[C@]3(C)C(=O)CC[C@@H]23)[C@@]2(C)CCCC=C12 | 96.7
25 | C[C@H]1C[C@H]2[C@@H]3CCC(=O)[C@@]3(C)CC[C@@H]2[C@@]2(C)CCC[C@H]3O[C@]132 | 58.7
26 | C[C@H]1C[C@@H]2[C@H](CC[C@]3(C)C(=O)CC[C@@H]23)[C@@]2(C)CCC=C[C@H]12 | 93.5
27 | C[C@@H]1C[C@@H]2[C@H]3O[C@H]3CC[C@]2(C)[C@H]2CC[C@]3(C)C(=O)CC[C@H]3[C@H]12 | 13.7
28 | C[C@@H]1CC2=CC(=O)CC[C@]2(C)[C@H]2CC[C@]3(C)C(=O)CC[C@H]3[C@H]12 | 94.3
29 | C[C@H]1C[C@@H]2[C@H](CC[C@]3(C)C(=O)CC[C@@H]23)[C@@]2(C)CCC(=O)C=C12 | 98.7
30 | C[C@@H]1CC2=CCCC[C@]2(C)[C@H]2CC[C@]3(C)C(=O)CC[C@H]3[C@H]12 | 97.4
31 | C=CC[C@@H]1CC2=C(O)C(=O)CC[C@]2(C)[C@H]2CC[C@]3(C)C(=O)CC[C@H]3[C@H]12 | 91.8
32 | C=CC[C@H]1C[C@@H]2[C@H](CC[C@]3(C)C(=O)CC[C@@H]23)[C@@]2(C)CCC(=O)C(O)=C12 | 90.1
33 | C[C@H]1C[C@@H]2[C@H](CC[C@]3(C)C(=O)CC[C@@H]23)[C@@]2(C)CC[C@H]3O[C@H]3[C@H]12 | 96.7
34 | C[C@H]1C[C@H]2[C@@H]3CCC(=O)[C@@]3(C)CC[C@@H]2[C@@]2(C)CCC[C@@H]3O[C@]312 | 76.2
35 | C=CC[C@H]1C[C@@H]2[C@H](CC[C@]3(C)C(=O)CC[C@@H]23)[C@@]2(C)CCCC=C12 | 92.4
36 | C[C@]12CCC(=O)C=C1[C@H](O)C[C@@H]1[C@@H]2CC[C@]2(C)C(=O)CC[C@@H]12 | 88.6
37 | C=CC[C@H]1C[C@@H]2[C@H](CC[C@]3(C)C(=O)CC[C@@H]23)[C@@]2(C)CCC(=O)C=C12 | 97.2
38 | C[C@]12CCC(=O)C=C1C[C@@H](O)[C@@H]1[C@@H]2CC[C@]2(C)C(=O)CC[C@@H]12 | 49.8
39 | C=CC[C@H]1C[C@@H]2[C@H](CC[C@]3(C)C(=O)CC[C@@H]23)[C@@]2(C)C=CC(=O)C=C12 | 97.6
40 | C[C@]12CCC(=O)C=C1[C@@H](O)C[C@@H]1[C@@H]2CC[C@]2(C)C(=O)CC[C@@H]12 | 90.7
41 | C[C@@H]1C[C@@]23O[C@@H]2CCC[C@]3(C)[C@H]2CC[C@]3(C)C(=O)CC[C@H]3[C@H]12 | 64.9
42 | C[C@]12CCC(=O)C(O)=C1CC[C@@H]1[C@@H]2CC[C@]2(C)C(=O)CC[C@@H]12 [FORMESTANE] | 99.2

molecular target: T1, Aromatase; assay: Inhibition of […] aromatase expressed in human MCF7 cells at 10 uM using [1beta3H]-androstenedione as substrate measured after 1 hr in presence of progesterone relative to control; details: not given

Row | Structure (SMILES) | inhibition at 10 µM [%]
43 | C[C@H]1C[C@@H]2[C@H](CC[C@]3(C)C(=O)CC[C@@H]23)[C@@]2(C)CCC=C[C@H]12 | 88.7
44 | C[C@@H]1CC2=CC(=O)CC[C@]2(C)[C@H]2CC[C@]3(C)C(=O)CC[C@H]3[C@H]12 | 90.8
45 | C=CC[C@@H]1CC2=CC(=O)CC[C@]2(C)[C@H]2CC[C@]3(C)C(=O)CC[C@H]3[C@H]12 | 92.6
46 | C[C@H]1C[C@@H]2[C@H](CC[C@]3(C)C(=O)CC[C@@H]23)[C@@]2(C)CCC(=O)C=C12 | 98.6
47 | C[C@@H]1CC2=CCCC[C@]2(C)[C@H]2CC[C@]3(C)C(=O)CC[C@H]3[C@H]12 | 89.5
48 | C=CC[C@H]1C[C@@H]2[C@H](CC[C@]3(C)C(=O)CC[C@@H]23)[C@@]2(C)CCC(=O)C(O)=C12 | 80.7
49 | C[C@H]1C[C@@H]2[C@H](CC[C@]3(C)C(=O)CC[C@@H]23)[C@@]2(C)CC[C@H]3O[C@H]3[C@H]12 | 84.2
50 | C=CC[C@H]1C[C@@H]2[C@H](CC[C@]3(C)C(=O)CC[C@@H]23)[C@@]2(C)CCCC=C12 | 84.1
51 | C[C@]12CCC(=O)C=C1[C@H](O)C[C@@H]1[C@@H]2CC[C@]2(C)C(=O)CC[C@@H]12 | 88.2
52 | C=CC[C@H]1C[C@@H]2[C@H](CC[C@]3(C)C(=O)CC[C@@H]23)[C@@]2(C)CCC(=O)C=C12 | 96.5
53 | C=CC[C@@H]1CC2=CCCC[C@]2(C)[C@H]2CC[C@]3(C)C(=O)CC[C@H]3[C@H]12 | 74.7
54 | C=CC[C@@H]1CC2=CC(=O)C=C[C@]2(C)[C@H]2CC[C@]3(C)C(=O)CC[C@H]3[C@H]12 | 96.3
55 | C=CC[C@H]1C[C@@H]2[C@H](CC[C@]3(C)C(=O)CC[C@@H]23)[C@@]2(C)C=CC(=O)C=C12 | 99.2
56 | C[C@]12CCC(=O)C=C1[C@@H](O)C[C@@H]1[C@@H]2CC[C@]2(C)C(=O)CC[C@@H]12 | 88.4
57 | C[C@]12CCC(=O)C(O)=C1CC[C@@H]1[C@@H]2CC[C@]2(C)C(=O)CC[C@@H]12 [FORMESTANE] | 97.1

molecular target: T1, Aromatase; assay: Competitive irreversible inhibition of human placental microsome aromatase using varying levels of [1beta3H]-androstenedione as substrate measured after 5 mins in presence of NADPH by Dixon-plot analysis; format: microsomes, Placenta; details: read-out: Ki(app)

Row | Structure (SMILES) | Ki [nM]
58 | C[C@H]1C[C@@H]2[C@H](CC[C@]3(C)C(=O)CC[C@@H]23)[C@@]2(C)CCC(=O)C=C12 | 22.5

molecular target: T1, Aromatase; assay: Competitive reversible inhibition of human placental microsome aromatase using varying levels of [1beta3H]-androstenedione as substrate measured after 5 mins in presence of NADPH by Lineweaver-burk plot analysis; design: species or system Placenta; details: microsomes

Row | Structure (SMILES) | inhibition (INH)
59 | C[C@H]1C[C@@H]2[C@H](CC[C@]3(C)C(=O)CC[C@@H]23)[C@@]2(C)CCC(=O)C=C12 | Active

molecular target: T1, Aromatase; assay: Competitive irreversible inhibition of human placental microsome aromatase using varying levels of [1beta3H]-androstenedione as substrate measured after 5 mins in presence of NADPH by Lineweaver-burk plot analysis; design: species or system Placenta; details: microsomes

Row | Structure (SMILES) | inhibition (INH)
60 | C=CC[C@H]1C[C@@H]2[C@H](CC[C@]3(C)C(=O)CC[C@@H]23)[C@@]2(C)C=CC(=O)C=C12 | Active
